{"source": "patent EP0450573A2", "about": "“Antibodies for the treatment and diagnosis of Pseudomonas aeruginosa infections” (priority 1990, dated 1991)", "test_system": "P. aeruginosa strain FI-6(A366)", "assay": "Opsonophagocytic assay (bactericidal activity with complement and polymorphonuclear cells)", "type": "cell-based", "settings": "cefepime alone, 0 µg/ml 6D7 data point of Figure 1", "procedure": "Overnight cultures of P. aeruginosa FI-6 in adjusted Miller-Hinton broth containing 50 mg/l calcium chloride and 25 mg/l magnesium chloride were innoculated into media lacking or containing 1 µg/ml amikacin; this concentration of antibiotic allows almost normal growth of the bacterial culture. The bacterial cultures were incubated until mid-logarithmic phase of growth was attained, and then the bacteria were harvested by centrifugation, and resuspended to 5 x 10⁴ cells/ml in gelatin veronal buffer. […] Opsonic activity of antibodies directed against amikacin-treated bacteria was determined in the presence of 1 µg/ml amikacin. […] The amount of bacterial killing, was determined by plating 25 µl from each tube onto solid agar, growing the plated bacteria overnight, and counting the number of colonies on the plate. […]\nThe opsonophagocytic activity of varying amounts of monoclonal antibody 6D7 towards P. aeruginosa strain FI-6 cells was determined in the presence or absence of subinhibitory concentrations of the antibiotic, cefepime. […]"}
{"compound": "CO/N=C(\\C(=O)N[C@@H]1C(=O)N2C(C(=O)[O-])=C(C[N+]3(C)CCCC3)CS[C@H]12)c1csc(N)n1", "note": "[cefepime]", "values": [{"measurement": "survival", "value": 100, "unit": "%"}]}
